Source: patent publication US20220031667A1, “THIAZOLIDINEDIONE ANALOGS FOR THE TREATMENT OF NAFLD AND METABOLIC DISEASES” (Cirius Therapeutics, Inc., priority 2019, published 2022)
“Also recorded” adds a separate entry of the source.

Columns and labels:
[1] = tested on: cell functions and key regulatory proteins; experiment: impact of MSDC-0602K vs overnutrition on cell functions and key regulatory proteins (Table 1)
[2] = tested on: diet-induced obese WT (fl/fl) and LS-MPC2−/− mice; experiment: single dose in diet-induced obese (60% HF diet) WT and LS-MPC2−/− mice: GTT, plasma insulin, plasma ALT, liver qPCR; format: in vivo; settings: for glucose tolerance (GTT): vs vehicle
Protocol: 8 week old WT and LS-MPC2−/− mice were fed a diet of 60% fat (Research Diets D12492) for 20 weeks to induce obesity and insulin resistance. Intraperitoneal glucose tolerance tests (GTT) were performed after a 4 h fast by injection of 1 g/kg D-glucose in saline i.p. to assess glucose tolerance. 3 days after the initial GTT, mice were randomized to receive a single gavage of either vehicle (1% CMC, 0.01% Tween-80) or 30 mg/kg MSDC-0602K. Plasma insulin was measured by Singulex assay and plasma ALT levels were measured by commercially-available kits (Teco Diagnostics). qPCR was performed by isolation of total RNA with RNA-Bee and reverse transcription with a high-capacity cDNA synthesis kit (Invitrogen). qPCR was performed on an Applied Biosystems real-time thermocycler.

[3] = tested on: mice on high fat, high cholesterol, high sugar diet; experiment: preclinical NASH model: diet enriched in trans fat, cholesterol and fructose for 19 weeks; format: in vivo
Protocol: Mice were fed a diet enriched in trans fat, cholesterol and fructose for 19 weeks to induce hepatic damage, which was assessed by histological changes in the NAS and fibrosis, measured by trichrome staining for collagen. MSDC-0602K (30 mg/kg) was given at either four weeks into the treatment or 16 weeks into the treatment as compared to the vehicle treated mice who were also on the modified diet. The results of mice who were kept on the normal diet are included for comparison. […] The signals for activation of the stellate cells and fibrosis are attenuated by treatment of the mice or isolated hepatocytes with MSDC-0602K.

[4] = preclinical toxicology, six- and twelve-month animal studies; format: in vivo
[5] = tested on: stellate cells in 3-dimensional bioprinted human liver organoids; experiment: 3-dimensional bioprinted human liver organoids in medium with high sugars and fatty acid, collagen staining; format: cell-based; settings: added to the tissue medium with high concentrations of sugars and fatty acid
[6] = tested on: subjects with biopsy proven NASH with fibrosis and no cirrhosis; experiment: EMMINENCE Phase 2b clinical trial, interim analysis at six months; format: in vivo, humans; settings: for peripheral edema present at 6 months: placebo 12.50%; for percentage of patients with high baseline ALT who returned to normal range: placebo 15%; for percentage of patients with high baseline AST who returned to normal range: placebo 20%
Description: Detailed Description: This is a randomized, double-blinded study of three doses of MSDC-0602K or placebo given orally once daily to subjects with biopsy proven NASH with fibrosis and no cirrhosis. Visits to the clinic will be at baseline, 1, 2, 3, 6, 9, and 12 months, with one 2-week follow-up visit. Safety will be assessed by monitoring of vital signs, 12 lead electrocardiogram (ECG), physical examinations, safety labs, and adverse events (AEs).
An interim analysis of the EMMINENCE Phase 2b trial was conducted in the first 328 subjects who reached their six-month follow-up visit. […] In the two highest dose groups, at least 50% of patients with elevated baseline Alanine transaminase (ALT) or Aspartate Aminotransferase (AST) improved into the normal range at six months, as shown in Table 3.
The subjects included in this interim analysis had significant liver disease, as established by liver biopsy, with an average NAS at baseline of 5.3. […] Overall, baseline characteristics were well-balanced across treatment groups.

[7] = target: T1, MPC (mitochondrial pyruvate carrier) (Homo sapiens, UniProt O95563+Q9Y5U8); experiment: relative binding affinities with the MPC; settings: FIG. 16 as printed (legend: FIG. 8); relative to rosiglitazone and pioglitazone
T1 sequence (Q9Y5U8 1-109): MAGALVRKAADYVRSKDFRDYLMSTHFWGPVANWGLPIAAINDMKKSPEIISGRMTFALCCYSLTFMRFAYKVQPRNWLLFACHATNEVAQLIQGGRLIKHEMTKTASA
T1 sequence (O95563 1-127): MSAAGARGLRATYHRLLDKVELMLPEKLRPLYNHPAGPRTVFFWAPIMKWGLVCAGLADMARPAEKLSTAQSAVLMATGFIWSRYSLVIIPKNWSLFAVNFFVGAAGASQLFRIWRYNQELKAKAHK

[8] = tested on: WT mice on HTF-C diet (mouse model of NASH); experiment: NASH (HTF-C) diet plasma RNA experiments: serum miRNA sequencing; format: in vivo; settings: HTF-C diet 4 or 16 weeks, then HTF-C diet containing 331 ppm
Protocol: To begin evaluating the exosome cargo of MSDC-0602K-treated mice, WT mice were fed with either a low fat (LF) control diet (Research Diets D09100304) or high trans-fat, fructose, cholesterol (HTF-C) diet composed of 40% trans-fat, 20% fructose, 2% cholesterol (Research Diets D09100301).
Total RNA was isolated from 400 μL of serum and small RNA sequencing was performed by adapter ligation, cDNA synthesis and size selection of 145-160 base pairs. Sequencing was then performed on an Illumina HiSeq3000.

[9] = clinical pharmacokinetics (Phase 1 cross-over trials, Phase 2a trial); settings: human, in vivo; humans, oral
[10] = tested on: healthy volunteers; experiment: three Phase 1 clinical trials in 126 healthy volunteers, safety; format: in vivo, humans; settings: Phase 1, healthy volunteers
[11] = target: T2, PPARγ (Homo sapiens, UniProt P37231); experiment: relative binding affinities with PPARγ; settings: FIG. 15 as printed (legend: FIG. 7)
T2 sequence (P37231 1-505): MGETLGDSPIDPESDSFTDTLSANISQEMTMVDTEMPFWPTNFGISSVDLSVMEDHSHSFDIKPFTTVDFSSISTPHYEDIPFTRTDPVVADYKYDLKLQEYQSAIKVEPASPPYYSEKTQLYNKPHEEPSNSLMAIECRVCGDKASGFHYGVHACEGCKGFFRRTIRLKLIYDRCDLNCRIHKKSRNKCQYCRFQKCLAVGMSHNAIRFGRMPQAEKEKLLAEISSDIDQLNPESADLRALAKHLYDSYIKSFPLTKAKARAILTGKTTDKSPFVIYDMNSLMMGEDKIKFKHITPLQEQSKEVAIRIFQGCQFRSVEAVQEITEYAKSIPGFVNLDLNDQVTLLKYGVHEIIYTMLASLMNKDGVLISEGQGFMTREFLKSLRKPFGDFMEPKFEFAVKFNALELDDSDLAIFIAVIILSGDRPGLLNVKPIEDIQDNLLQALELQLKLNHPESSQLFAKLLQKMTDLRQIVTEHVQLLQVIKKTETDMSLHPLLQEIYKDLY

[12] = exposure and bioavailability of MSDC-0602, its metabolite and the potassium salt; format: in vivo; settings: parent plus metabolite exposure

## COc1cccc(C(=O)COc2ccc(CC3SC(=O)NC3=O)cc2)c1 (centres unmarked) [MSDC-0602K]
[1]
  Fatty acid oxidation (burning fat): Increased
  HIF1α (transcription factor responding to oxygen): Decreased
  Inflammation (ballooning due to injury): Decreased
  Insulin sensitivity (cellular response to insulin): Increased
  PPARγ, PPARα (transcription factors regulating fat metabolism and inflammation): Increased
  SREBP (transcription factor regulating fat synthesis): Decreased
  de novo lipid synthesis (making new fat): Decreased
  mTORC1 (important nutrient sensor): Decreased
[2]; obese WT mice, GTT 20 h after a single gavage of 30 mg/kg, 30 mg/kg
  glucose tolerance (GTT): improves glucose tolerance
[3]; 30 mg/kg from week 4 or week 16 of a 19 week diet, mice or isolated hepatocytes
  signals for activation of the stellate cells and fibrosis: attenuated
[4]; doses up to seven-fold the currently used clinical dose equivalents
  safety findings in toxicological profile: free acid, have been characterized and no significant safety findings
[4]; six- and twelve-month preclinical animal studies
  safety and tolerability: 0602K, MSDC-0602K was found to be safe and well-tolerated.
[5]
  nutrient-induced stellate cell activation and fibrosis (staining for collagen): both prevented and reversed the effects of the nutrients
[6]; 62.5 mg (n = 81), baseline 13.60%
  peripheral edema present at 6 months: 7.80%
[6]; 62.5 mg, six months
  percentage of patients with high baseline ALT who returned to normal range: 29%
  percentage of patients with high baseline AST who returned to normal range: 36%
[6]; 125 mg (n = 84), baseline 13.10%
  peripheral edema present at 6 months: 13.50%
[6]; 125 mg once daily, p<0.001
  placebo-corrected reduction in ALT at six months: 14.3 U/L
[6]; 125 mg once daily, p=0.012
  placebo-corrected reduction in AST at six months: 7.9 U/L
[6]; 125 mg, six months
  percentage of patients with high baseline ALT who returned to normal range: 60%
  percentage of patients with high baseline AST who returned to normal range: 50%
[6]; 250 mg (n = 85), baseline 9.40%
  peripheral edema present at 6 months: 11.10%
[6]; 250 mg once daily, not significant
  placebo-corrected reduction in AST at six months: 4.0 U/L
[6]; 250 mg once daily, p=0.004
  placebo-corrected reduction in ALT at six months: 10.6 U/L
[6]; 250 mg, six months
  percentage of patients with high baseline ALT who returned to normal range: 56%
  percentage of patients with high baseline AST who returned to normal range: 52%
[6]; Type II diabetes subjects, all doses
  HbA1c: statistically significant improvement
[6]; all MSDC-0602K dose cohorts, six months
  HOMA-IR and HbA1c: Statistically significant reductions
[6]; all subjects, six months, 125 mg and 250 mg doses
  fasting glucose, HbA1c, insulin levels, and HOMA-IR: statistically significant improvements
[6]; all treatment cohorts, dose dependent
  Adiponectin: increased significantly
[6]; first 328 subjects
  liver enzymes, including ALT and AST, at six months compared to baseline: statistically significant reductions
[6]; overall
  lipids: neutral effect
[6]; reported in fourteen subjects, blinded across cohorts
  treatment emergent serious adverse events: none of which were determined by the investigator to be drug-related
[6]; six months
  additional biomarkers of fibrosis such as hematocrit: trends for improvement
  bilirubin, alkaline phosphatase, and gamma GT liver enzymes: Improvements
[6]; two highest dose groups (125 mg, 250 mg)
  patients with elevated baseline ALT or AST improved into the normal range at six months: at least 50%
[6]; two lowest doses
  C-Reactive Protein levels: decrease

## COc1cccc(C(=O)COc2ccc(CC3SC(=O)NC3=O)cc2)c1 (centres unmarked) [MSDC-0602]
[7]
  binding to the MPC: maintain, and in some cases improve, binding to the MPC
[2]; LS-MPC2−/− mice, acute treatment
  plasma ALT and liver injury gene expression in LS-MPC2−/− mice: refractory to the beneficial effects
[2]; WT mice, single dose (FIG. 3A)
  plasma ALT concentrations: decreased plasma ALT concentrations
[2]; WT mice, single dose (FIG. 3B)
  gene expression for hepatic stellate cell activation and fibrotic scar formation: decreased gene expression
[2]; both WT and LS-MPC2−/− mice, single dose 30 mg/kg
  plasma insulin values: decreased
[2]; obese LS-MPC2−/− mice, GTT 20 h after a single dose of 30 mg/kg
  glucose tolerance (GTT): no improvement in glucose tolerance
[2]; obese WT mice, GTT 20 h after a single gavage of 30 mg/kg
  glucose tolerance (GTT): improved glucose tolerance
[8]
  serum miRNAs altered by HTF-C diet: largely corrected
[3]; multiple animal models of NASH
  protection against the high fat, high cholesterol, high sugar diet representative of NASH disease: has been shown to protect
[9]
  half-life: 11 to 17 h
[10]
  most commonly reported adverse events: commonly reported adverse events with MSDC-0602 were headache,; also recorded: emesis, diarrhea and abdominal bloating
[10]; MSDC-0602 or MSDC-0602K
  deaths, serious adverse events, severe adverse events or discontinuations due to adverse events: No deaths
  safety laboratory tests, vital signs, physical examination findings or electrocardiogram abnormalities considered clinically significant: events were reported. Overall, it was determined that there were no

## COc1cccc(C(O)COc2ccc(CC3SC(=O)NC3=O)cc2)c1 (centres unmarked) [primary metabolite of MSDC-0602]
[11]
  reduction in binding affinity for PPARγ compared to pioglitazone: more than fifty-fold reduction
[7]
  binding to the MPC: maintain, and in some cases improve, binding to the MPC
[12]
  share of the combined exposure: more than 90%
